Several values for one entry are separate records, joined by “and”; a condition that tells them apart may be missing. Identical values can stand only once. Entries after “also recorded” stand apart in the source; their conditions may differ.
What was measured:
[1] = Side-effect monitoring in the nelfinavir trial in HIV-negative individuals; format: in vivo, human
Protocol: (§1) Following approval by the Mayo Institutional Review Board, peripheral blood was sampled from 46 healthy blood donors older than 18 years of age for baseline TREC analysis. For the separate nelfinavir trial, 15 HIV-negative individuals with no active illness older than 18 years of age were given nelfinavir, 1250 mg orally, twice a day for 21 days. Blood for TREC analysis was obtained before therapy and on days 3, 5, 7, 14, and 21 after starting therapy. At each blood draw, side-effects were monitored and recorded from each subject. Severity of diarrhea was graded as: Grade 0—None; Grade 1—increase of 4 stools/day over pretreatment; Grade 2—increase of 4-6 stools/day, or nocturnal stools; Grade 3—increase of 7 stools/day or incontinence, or dehydration episode requiring parenteral support; Grade 4—episode of hemodynamic collapse requiring intensive care.

[2] = test system: thymic derived naïve T-cell numbers in the peripheral blood; assay: TREC analysis (sjTREC/CCR5 real-time PCR) of peripheral blood in HIV-negative volunteers on nelfinavir mono-therapy; format: in vivo, human
Protocol: as §1
TREC Analysis: DNA was isolated from peripheral blood mononuclear cells (PBMC) using an QIAamp Blood Mini DNA Kit (Qiagen) and assessed for signal joint (sj) TREC content relative to genomic CCR5 copies by real-time PCR in a spectroflourometric thermal cycler (ABI PRISM 7700 or 7900, PE Applied Biosystems). SjTREC reactions contained 12.5 pmol primers (forward […] [SEQ ID NO:1]), reverse […] [SEQ ID NO:2]) 3 pmoles TAQMAN probe (FAM-[…]-TAMRA [SEQ ID NO:3]), 1× TAQMAN Universal PCR Master Mix (PE Applied Biosystems), and 50 to 400 ng of template DNA in a total volume of 25 μl. CCR5 reactions contained 12.5 pmol primers (forward […] [SEQ ID NO:4], and reverse […] [SEQ ID NO:5]), 3 pmoles TAQMAN probe (FAM-[…]-TAMRA [SEQ ID NO:6]),1× TAQMAN Universal PCR Master Mix, and 50-400 ng of template of genomic DNA in a total volume of 25 μl. Thermal cycling conditions consisted of a 2-minute incubation at 50° C. and an initial denaturation/activation step at 95° C. for 10 minutes, followed by 40 cycles of 95° C. for 15 seconds and 60° C. for 1 minute in a microplate format. For each plate of reactions, standard curves were generated with 1-100,000 copies of human sjTREC plasmid (provided by Dr. D. Douek, NIH) and human CCR5 plasmid (cloned by RT-PCR into pCI) in order to calculate copies of TREC versus CCR5.
Statistical analysis: Experiments from every figure were performed in duplicate and repeated at least twice. All measurements are presented as means and standard deviations with statistical comparisons made between baseline and day 21 TREC/CCR5 measurements using the Student's t test for paired observations. For FIG. 2, change in baseline to day 21 TREC/CCR5 levels were stratified according to subjects age with 2 subjects <40, 2 subjects 40-65, and 11 subjects >65 years old.

Kaposi's sarcoma = details: mice implanted with Kaposi's sarcoma; cited from earlier work
[3] = test system: adult T-cell leukemia cells; details: NOD/SCID mice implanted with adult T-cell leukemia cells; cited from earlier work

| Compound | clinical tolerability ([1]; 1250 mg orally twice a day for 21 days) | subjects who completed the 21 days of therapy ([1]; 15 subjects) | subjects who experienced Grade 1 or 2 diarrhea ([1]; six of 15 subjects) | volunteers who did not increase TREC numbers following 21 days ([2]; 15 subjects, 21 days) | volunteers who responded with increases in TREC numbers from baseline to day 21 ([2]; 15 subjects, 21 days) | effect on TREC levels / TREC positive naïve T-cell number ([2]; HIV-negative adults, mono-therapy for 21 days) | median increase in TRECs from baseline to day 21 in responders ([2]; eight responding volunteers, p<0.02) | change between baseline and day 21 TREC/CCR5 levels ([2]; entire cohort analyzed) | Day 21/0 TREC ([2]; individual subjects 1-15, nelfinavir 1250 mg orally twice a day for 21 days) | patients in whom TREC copies/copies CCR5 increased ([2]; of 15 subjects, p<0.02) | patients in whom TREC copies/copies CCR5 did not change ([2]; of 15 subjects, p=NS) | change in TREC levels between baseline (day 0) and days 3, 5, 7 or 14 ([2]; paired analysis) | average increase in TREC levels ([2]; subjects 40-65 years) | average change in TREC levels ([2]; subjects greater than 65 years) | average increase in TREC levels ([2]; subjects less than 40 years) | tumor response (Kaposi's sarcoma) | tumor growth [3] |
| --- | --- | --- | --- | --- | --- | --- | --- | --- | --- | --- | --- | --- | --- | --- | --- | --- | --- |
| Cc1c(O)cccc1C(=O)N[C@@H](CSc1ccccc1)[C@H](O)CN1C[C@H]2CCCC[C@H]2C[C@H]1C(=O)NC(C)(C)C [nelfinavir] | clinically well tolerated | all but one subject | 40% | 47 % of total | 53 % of total | induces an increase in TREC levels in a subset of healthy adults; also recorded: increases TREC positive naïve T-cell number | 1.2 copies TREC/CCR5 | no change | 0.74 and 1.18 and 0.24 and 1.25 and 1.01 and 0.72 and 1.0 and 1.36 and 1.06 and 2.32 and 1.88 and 0.59 and 0.29 and 0.38 and 0.55 | 8 patients | 7 patients | No significant change | 0.80 TREC/CCR5 copies | 0.89 TREC/CCR5 copies | 1.2 TREC/CCR5 copies |  |  |
| CC(C)c1nc(CN(C)C(=O)N[C@H](C(=O)N[C@@H](Cc2ccccc2)C[C@H](O)[C@H](Cc2ccccc2)NC(=O)OCc2cncs2)C(C)C)cs1 [Ritonavir] |  |  |  |  |  |  |  |  |  |  |  |  |  |  |  | significant tumor regression | reduced tumor growth |
